# Assay results from the Kinase Knowledgebase extract (Sharma et al. 2016).
# Biological target: CDK2 (human) (UniProt P24941)
# Assay: Enzyme Assay
row,IC50 [nM],SMILES
1,≤ 1000,O=C(CCN1CCCCC1)Nc1ccc2cc1OCCC=CCn1ccc3ccc(cc31)-c1ccnc(n1)N2
2,≤ 1000,C1=CCOCc2cc(ccc2OCCN2CCCC2)Nc2nccc(n2)-c2ccc3ccn(c3c2)CC1
3,≤ 1000,C1=CCOCc2cc(ccc2OCCN2CCCC2)Nc2nccc(n2)-c2ccc3c(ccn3CC1)c2
4,≤ 1000,CCN(CC)CCNCCOc1ccc2cc1COCC=CCn1ccc3ccc(cc31)-c1ccnc(n1)N2
5,≤ 1000,Cc1cnc2nc1-c1ccc3ccn(c3c1)CC=CCOCc1cc(ccc1OCCN1CCCC1)N2
6,≤ 1000,C1=CCn2ccc3ccc(cc32)-c2ccnc(n2)Nc2ccc(OCCN3CCCC3)c(c2)COC1
7,≤ 1000,C1=CCn2ccc3ccc(cc32)-c2ccnc(n2)Nc2cccc(c2)COC1
8,≤ 1000,O=C(CCN1CCCCC1)Nc1ccc2cc1OCC=CCn1ccc3ccc(cc31)-c1ccnc(n1)N2
9,≤ 1000,CC(=O)NCCNCCOc1ccc2cc1COCC=CCn1ccc3ccc(cc31)-c1ccnc(n1)N2
10,≤ 1000,C1=CCn2ccc3ccc(cc32)-c2ccnc(n2)Nc2cccc(c2)OCC1
11,≤ 1000,ClCCOc1ccc2cc1COCC=CCn1ccc3ccc(cc31)-c1ccnc(n1)N2
12,≤ 1000,CN1CCN(c2ccc3cc2COCC=CCn2ccc4ccc(cc42)-c2ccnc(n2)N3)CC1
13,≤ 1000,CN1CC=CCCn2ccc3ccc(cc32)-c2ccnc(n2)Nc2cccc(c2)C1
